The values that follow come from ChEMBL document CHEMBL1125172, “Voronoi binding site model of a polycyclic aromatic hydrocarbon binding protein” (J Med Chem, 1990).

For the experiment, the system named is Polycyclic aromatic hydrocarbon binding protein. The note with it: Mus musculus.
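Note: competitive displacement of radiolabeled [3H]benzo[a]pyrene from its binding site on the protein taken from mouse liver.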

Description: Competition for [3H]benzo[a]pyrene-binding site of polycyclic aromatic hydrocarbon binding protein (PBP) from mouse liver

The compound `O[C@H]1c2cccc3ccc4c5ccccc5cc(c4c23)[C@@H]1O` yielded a Delta Gm of 17.4.
The value for `Cc1ccc2cc3c(ccc4ccccc43)c3c2c1CC3` was 17.4.
The compound `Nc1cccc2ccccc12` returned a Delta Gm of 14.4.
As to `c1ccc2cc3c4ccccc4c4ccccc4c3cc2c1`, the Delta Gm is 18.6.
Next, `O[C@H]1C=Cc2c(cc3ccc4cccc5ccc2c3c45)[C@@H]1O`: 18.4; `Oc1ccc2cc3ccc4cccc5ccc(c2c1)c3c45`: 18.3; `c1ccc2c(c1)ccc1c3ccccc3ccc21`: 17.9.
`c1cc2ccc3cccc4ccc(c1)c2c34` had a Delta Gm of 16.3.
As to `c1ccc2c(c1)-c1cccc3cccc-2c13`, the Delta Gm stood at 17.8.
The compound `C1=Cc2cc3cccc4ccc5ccc1c2c5c43` showed a Delta Gm of 15.8.
Next, `c1ccc2c(c1)cc1ccc3cccc4ccc2c1c34`: 19.
In turn, `Nc1ccc2c(c1)Cc1ccccc1-2` came in with a Delta Gm of 11.9.
With `O[C@@H]1C=Cc2cc3ccc4cccc5ccc(c2[C@H]1O)c3c45`, the Delta Gm came to 18.9.
For `Nc1cc2ccccc2c2ccccc12`, the Delta Gm came to 15.2.
The value for `O[C@H]1C=C2c3ccccc3-c3cccc(c32)[C@@H]1O` was 17.7; that for `Nc1cccc2cc3ccccc3cc12` was 15.2.
